Source: US20100173845A1, “USE OF FERTIRELIN AND DELTA-ENDORPHIN AS THERAPEUTIC AGENTS” (priority 2007, published 2010)
Where a SMILES comes first, the peptide text is derived from it. Where no end group is shown, it is not given here. [ ]: non-standard residue; d: D form. pGlu = O=C1CC[C@@H](C(=O)O)N1

Experiments:
[1] = system: HCMV strain AD169; assay: HCMV plaque formation assay in MRC-5 cells; settings: for inhibition of HCMV plaque formation as compared to the virus control experiment: 10 micrograms per ml, 7-10 days, MRC-5 cells
[2] = system: hepatitis B virus (HBV) ayw strain; assay: HBV assay, secreted HBV DNA by TaqMan PCR in HepG2-2.2.15 cells; format: cell-based; settings: 10 micrograms per ml; six days; HBV DNA in supernatant
[3] = system: murine spleen cells; assay: Th1/Th2 cytokine profiling assay (Ovalbumin-restimulated spleen cells, CBA kit); format: cell-based, Balb/c mice; settings: 10 micrograms per ml, 72 hours; for production of IL-5, decreased by: numbers are decreases; for production of IL-5, decreased by / production of IFN-y, induced/increased by / production of IL-2, induced/increased by / production of TNF-alpha, induced by (increase): words state no change; for production of IFN-y, induced/increased by / production of IL-2, induced/increased by / production of TNF-alpha, induced by (increase): numbers are increases
From the text: The Balb/c mice (originated in 1923, it is a popular strain and is used in many different research disciplines. Also classified as an inbred from the production of 20 or more successive brother-sister matings, the Balb/c mouse is albino and small in size) were immunized on Days 1, 15, and 29 with Ovalbumin (Ovalbumin is the main protein found in egg white, commonly used to stimulate an immunological reaction in test animals) in PBS (5 micrograms/injection). On day 50, spleens of the mice were harvested (3 weeks after last boost with Ovalbumin). Cells were cultured (2×10^5/well in triplicate) and incubated with culture medium or test peptides−10 micrograms per ml−for 30 min. Thereafter, additional Ovalbumin was added to the cells at 10 micrograms/ml for in vitro restimulation of the cells. 72 hours later, cell supernatants were harvested and assayed using the Becton Dickinson Mouse Th1/Th2 Cytokine CBA Kit. This kit can be used to measure Interleukin-2 (IL-2), Interleukin-4 (IL-4), Interleukin-5 (IL-5), Interferon-γ (IFN-γ), and Tumor Necrosis Factor-α (TNF-α) protein levels in a single sample.

[4] = system: Primary Human endothelial cells (HUVEC); assay: Endothelial cell migration assay; format: cell-based; settings: 10 micrograms per ml; 22 hours
Protocol: Thereafter, designated concentration of testing peptides−10 micrograms per ml−was added in duplicate wells.

[5] = system: HUVEC; assay: Endothelial tube formation assay; format: cell-based, human; settings: 10 micrograms per ml; 20 hours
From the text: […] control wes vehicle only. […] Raw data were expressed as average tubule lenghs in pixels±standard deviation.

| Compound | antiviral activity of positive control compound ([1]; HCMV in MRC-5 cells) | inhibition of HBV replication as compared to the virus control infection [2] | production of IL-4, induced/increased by ([3]; increase) | production of IL-5, decreased by [3] | production of IFN-y, induced/increased by [3] | production of IL-2, induced/increased by [3] | production of TNF-alpha, induced by (increase) [3] | inhibition of the migration of human endothelial cells [4] | inhibition of the tube formation of human endothelial cells [5] | inhibition of HCMV plaque formation as compared to the virus control experiment [1] | production of IL-4, decreased by ([3]; decrease) |
| --- | --- | --- | --- | --- | --- | --- | --- | --- | --- | --- | --- |
| Nc1nc(O)c2ncn(COC(CO)CO)c2n1 [Ganciclovir, reference compound] | expected levels of antiviral activity | – | – | – | – | – | – | – | – | – | – |
| CCNC(=O)[C@@H]1CCCN1C(=O)[C@H](CCCNC(=N)N)NC(=O)[C@H](CC(C)C)NC(=O)CNC(=O)[C@H](Cc1ccc(O)cc1)NC(=O)[C@H](CO)NC(=O)[C@H](Cc1c[nH]c2ccccc12)NC(=O)[C@H](Cc1c[nH]cn1)NC(=O)[C@@H]1CCC(=O)N1 [Peptide 1] ([pGlu]HWSYGLRP-NHEt) | – | 47.1% | 139.7% | did not significantly change | 114.7% | 168.2% | 27.5% | 26% | 11% | 2.1% | – |
| YGGFMTSEKSQTPLVTLFKNAIIKNAY [Peptide 2] | – | 0% | – | 48.1% | did not significantly change | did not significantly change | did not significantly change | no effect | 11% | 0.7% | 31.5% |
